Holding throughout (set-up): agar dilution MIC, growth inhibition of clinical Burkholderia isolates
For orientation: In agar dilution, organisms are placed on agar that contains the substance at set levels.

One assay concerns T1, B. multivorans AU11233.
T1 construct: AU11233
The assay can be described thus: microbe, parasite or virus in culture. To be noted: Burkholderia multivorans, AU11233. From the text: (§1) We evaluated the activity of cefepime-taniborbactam against a panel of 140 Bcc clinical isolates (i.e., species ambifaria, arboris, cenocepacia, cepacia, contaminans, diffusa, dolosa, multivorans, pseudomultivorans, pyrrocinia, seminalis, stabilis, ubonensis, and vietnamiensis) and 10 B. gladioli from the Burkholderia cepacia Research Laboratory and Repository (University of Michigan) ([22], [25], [31]) (Supplementary Material, Tables S1 and S2). K. pneumoniae ATCC 700603 carrying bla SHV-18 and K. pneumoniae ATCC BAA-1705 harboring bla KPC strains were used as controls for β-lactam and β-lactamase inhibitor integrity; all controls tested within the anticipated quality control ranges (Table S3). Minimum inhibitory concentration (MIC) results were interpreted using Clinical Laboratory Standards Institute (CLSI) breakpoints, where available ([32]). […] An alternative cefepime-taniborbactam provisional susceptible breakpoint of ≤16 µg/mL is supported by in vivo efficacy data from neutropenic murine infection models (thigh, complicated urinary tract, and lung) ([15] [–] [17]) and data from safety and pharmacokinetics studies in human volunteers ([33], [34]). The cefepime-taniborbactam antimicrobial activity was compared to cefepime, meropenem, meropenem-vaborbactam, and levofloxacin, to data published for first-line agents (e.g., ceftazidime and trimethoprim-sulfamethoxazole) and to those recommended by the CLSI for clinical testing (e.g., minocycline) against the Bcc and B. gladioli panel ([22], [32]). Of note, the MICs of all these agents were determined by the agar dilution method, which alongside broth microdilution, are recommended by the CLSI to assess the antimicrobial susceptibility of Bcc isolates ([32]).

A further assay deals with T2, B. gladioli AU29541.
T2 construct: AU29541
Nature of the assay: organism not typed.
Source text: as §1

The test system of the next assay is T3, B. dolosa AU29985.
T3 construct: AU29985
Nature of the assay: microbe, parasite or virus in culture. The following applies: Burkholderia dolosa, AU29985.
Source text: as §1

For a further assay, the system named is T4, B. cenocepacia AU10321.
T4 construct: AU10321
Nature of the assay: microbe, parasite or virus in culture. To be noted: Burkholderia cenocepacia, AU10321.
Source text: as §1

The subject of the next assay is T5, B. cenocepacia AU21083.
T5 construct: AU21083
The assay can be described thus: microbe, parasite or virus in culture. The following applies: Burkholderia cenocepacia, AU21083.
Source text: as §1

In a further assay the test system is T6, B. vietnamiensis AU30387.
T6 construct: AU30387
Nature of the assay: microbe, parasite or virus in culture. To be noted: Burkholderia vietnamiensis, AU30387.
Source text: as §1

The test system of another assay is T7, B. cenocepacia AU12265.
T7 construct: AU12265
The assay can be described thus: microbe, parasite or virus in culture. The following applies: Burkholderia cenocepacia, AU12265.
Source text: as §1

The next assay has as its system T8, B. cenocepacia AU20902.
T8 construct: AU20902
Nature of the assay: microbe, parasite or virus in culture. The following applies: Burkholderia cenocepacia, AU20902.
Source text: as §1

The subject of assay [1] is T9, Burkholderia cepacia complex Bcc Indeterminate AU14962.
T9 construct: AU14962
Nature of the assay: microbe, parasite or virus in culture. To be noted: Burkholderia cepacia.
Source text: as §1

The subject of the next assay is T10, B. multivorans AU30441.
T10 construct: AU30441
Nature of the assay: microbe, parasite or virus in culture. The following applies: Burkholderia multivorans, AU30441.
Source text: as §1

The test system of the next assay is T11, B. multivorans AU16734.
T11 construct: AU16734
The assay can be described thus: microbe, parasite or virus in culture. The following applies: Burkholderia multivorans, AU16734.
Source text: as §1

Another assay deals with T12, B. contaminans AU25403.
T12 construct: AU25403
The assay can be described thus: organism not typed.
Source text: as §1

Another assay concerns T13, B. multivorans AU23995.
T13 construct: AU23995
The assay can be described thus: microbe, parasite or virus in culture. To be noted: Burkholderia multivorans, AU23995.
Source text: as §1

The subject of another assay is T14, B. multivorans AU28442.
T14 construct: AU28442
Nature of the assay: microbe, parasite or virus in culture. The following applies: Burkholderia multivorans, AU28442.
Source text: as §1

A further assay deals with T15, B. vietnamiensis AU26096.
T15 construct: AU26096
The assay can be described thus: microbe, parasite or virus in culture. To be noted: Burkholderia vietnamiensis, AU26096.
Source text: as §1

A further assay has as its system T16, B. vietnamiensis AU5003.
T16 construct: AU5003
Nature of the assay: microbe, parasite or virus in culture. The following applies: Burkholderia vietnamiensis, AU5003.
Source text: as §1

For the next assay, the system named is T17, B. dolosa AU12872.
T17 construct: AU12872
Nature of the assay: microbe, parasite or virus in culture. The following applies: Burkholderia dolosa, AU12872.
Source text: as §1

In a further assay the test system is T18, B. contaminans AU21811.
T18 construct: AU21811
Nature of the assay: organism not typed.
Source text: as §1

For another assay, the system named is T19, B. cepacia AU22213.
T19 construct: AU22213
Nature of the assay: microbe, parasite or virus in culture. To be noted: Burkholderia cepacia, AU22213.
Source text: as §1

The subject of another assay is T20, B. pyrrocinia AU1114.
T20 construct: AU1114
Nature of the assay: microbe, parasite or virus in culture. To be noted: Burkholderia pyrrocinia, AU1114.
Source text: as §1

The subject of a further assay is T21, B. cenocepacia AU11339.
T21 construct: AU11339
The assay can be described thus: microbe, parasite or virus in culture. To be noted: Burkholderia cenocepacia, AU11339.
Source text: as §1

For the next assay, the system named is T22, B. cepacia AU0108.
T22 construct: AU0108
The assay can be described thus: microbe, parasite or virus in culture. The following applies: Burkholderia cepacia, AU0108.
Source text: as §1

Values after ≈ are worked out from the molar mass of the structure shown.

`CO/N=C(\C(=O)N[C@@H]1C(=O)N2C(C(=O)[O-])=C(C[N+]3(C)CCCC3)CS[C@H]12)c1csc(N)n1` [cefepime]: the MIC is over 32 µg/mL with B. multivorans AU11233; 32 µg/mL (≈ 66.6 µM) with B. gladioli AU29541; over 32 µg/mL with B. dolosa AU29985; over 32 µg/mL against B. cenocepacia AU10321; 16 µg/mL (≈ 33.3 µM) against B. cenocepacia AU21083; 2 µg/mL (≈ 4.16 µM) in the assay with B. vietnamiensis AU30387. Further, the MIC in the assay with B. cenocepacia AU12265 is 16 µg/mL (≈ 33.3 µM); with B. cenocepacia AU20902, 16 µg/mL (≈ 33.3 µM); in assay [1], over 32 µg/mL; against B. multivorans AU30441, 2 µg/mL (≈ 4.16 µM); against B. multivorans AU16734, 16 µg/mL (≈ 33.3 µM); with B. contaminans AU25403 it was 8 µg/mL (≈ 16.6 µM). For the same compound, the MIC in the assay on B. multivorans AU23995 was over 32 µg/mL; in the assay with B. multivorans AU28442 it was over 32 µg/mL; in the assay on B. vietnamiensis AU26096, 32 µg/mL (≈ 66.6 µM); against B. vietnamiensis AU5003 it was over 32 µg/mL; in the assay with B. dolosa AU12872, over 32 µg/mL; in the assay on B. contaminans AU21811, over 32 µg/mL. For the same compound, the MIC against B. cepacia AU22213 amounted to 32 µg/mL (≈ 66.6 µM); against B. pyrrocinia AU1114, 8 µg/mL (≈ 16.6 µM); in the assay with B. cenocepacia AU11339, 16 µg/mL (≈ 33.3 µM); against B. cepacia AU0108, 8 µg/mL (≈ 16.6 µM).

In the case of `C[C@H]1COc2c(N3CCN(C)CC3)c(F)cc3c(=O)c(C(=O)O)cn1c23` [levofloxacin], the MIC was 16 µg/mL (≈ 44.3 µM) in the assay with B. multivorans AU11233; 8 µg/mL (≈ 22.1 µM) against B. gladioli AU29541; over 32 µg/mL in the assay with B. dolosa AU29985; over 32 µg/mL against B. cenocepacia AU10321; 2 µg/mL (≈ 5.53 µM) against B. cenocepacia AU21083; 2 µg/mL (≈ 5.53 µM) against B. vietnamiensis AU30387. Besides, the MIC was 4 µg/mL (≈ 11.1 µM) against B. cenocepacia AU12265; 4 µg/mL (≈ 11.1 µM) against B. cenocepacia AU20902; 2 µg/mL (≈ 5.53 µM) in assay [1]; 2 µg/mL (≈ 5.53 µM) against B. multivorans AU30441; 8 µg/mL (≈ 22.1 µM) with B. multivorans AU16734; 2 µg/mL (≈ 5.53 µM) in the assay on B. contaminans AU25403. Further, the MIC against B. multivorans AU23995 is 4 µg/mL (≈ 11.1 µM); in the assay on B. multivorans AU28442 it was 16 µg/mL (≈ 44.3 µM); in the assay with B. vietnamiensis AU26096, over 32 µg/mL; with B. vietnamiensis AU5003 it was 8 µg/mL (≈ 22.1 µM); with B. dolosa AU12872 it was over 32 µg/mL; against B. contaminans AU21811, 8 µg/mL (≈ 22.1 µM). Further, the MIC was 2 µg/mL (≈ 5.53 µM) against B. cepacia AU22213, over 32 µg/mL against B. pyrrocinia AU1114, 2 µg/mL (≈ 5.53 µM) against B. cenocepacia AU11339 and 2 µg/mL (≈ 5.53 µM) against B. cepacia AU0108.

For `C[C@@H](O)[C@H]1C(=O)N2C(C(=O)O)=C(S[C@@H]3CN[C@H](C(=O)N(C)C)C3)[C@H](C)[C@H]12` [meropenem], the MIC in the assay on B. multivorans AU11233 is 8 µg/mL (≈ 20.9 µM); against B. gladioli AU29541, 8 µg/mL (≈ 20.9 µM); against B. dolosa AU29985, over 32 µg/mL; in the assay on B. cenocepacia AU10321, 16 µg/mL (≈ 41.7 µM); in the assay on B. cenocepacia AU21083, 4 µg/mL (≈ 10.4 µM); against B. vietnamiensis AU30387, 0.25 µg/mL (≈ 0.652 µM). Further, the MIC in the assay on B. cenocepacia AU12265 turned out to be 4 µg/mL (≈ 10.4 µM); in the assay on B. cenocepacia AU20902, 4 µg/mL (≈ 10.4 µM); in assay [1] it was 8 µg/mL (≈ 20.9 µM); against B. multivorans AU30441, 8 µg/mL (≈ 20.9 µM); against B. multivorans AU16734, 16 µg/mL (≈ 41.7 µM); in the assay on B. contaminans AU25403 it was 2 µg/mL (≈ 5.22 µM). For the same compound, the MIC was 8 µg/mL (≈ 20.9 µM) against B. multivorans AU23995; over 32 µg/mL in the assay with B. multivorans AU28442; 8 µg/mL (≈ 20.9 µM) with B. vietnamiensis AU26096; 4 µg/mL (≈ 10.4 µM) against B. vietnamiensis AU5003; 32 µg/mL (≈ 83.4 µM) with B. dolosa AU12872; 16 µg/mL (≈ 41.7 µM) in the assay with B. contaminans AU21811. Also, the MIC stood at 4 µg/mL (≈ 10.4 µM) in the assay on B. cepacia AU22213, 4 µg/mL (≈ 10.4 µM) against B. pyrrocinia AU1114, 2 µg/mL (≈ 5.22 µM) in the assay with B. cenocepacia AU11339 and 4 µg/mL (≈ 10.4 µM) against B. cepacia AU0108.

The values above are taken from article PMC10648927, “Examining the activity of cefepime-taniborbactam against Burkholderia cepacia complex and Burkholderia gladioli isolated from cystic fibrosis patients in the United States” (Antimicrobial Agents and Chemotherapy, 2023).
